Patent US20240034729A9, “HETEROCYCLIC COMPOUND, INTERMEDIATE, PREPARATION METHOD THEREFOR AND APPLICATION THEREOF” (WUHAN LL SCIENCE AND TECHNOLOGY DEVELOPMENT CO., LTD., priority 2018, published 2024)
pIC50: −log10 of the molar value.

These compounds were tested against hP2X3 (human purinergic P2X receptor subtype 3) (Homo sapiens (Human), UniProt P56373) (assay: FLIPR calcium assay, hP2X3 expressed in HEK293 cells). Details: HEK293 cells expressing hP2X3, agonist BZ-ATP 2.5 μM; class symbols; read-out: P2X3 IC50.
Sequence of hP2X3 (human purinergic P2X receptor subtype 3) (P56373 whole entry): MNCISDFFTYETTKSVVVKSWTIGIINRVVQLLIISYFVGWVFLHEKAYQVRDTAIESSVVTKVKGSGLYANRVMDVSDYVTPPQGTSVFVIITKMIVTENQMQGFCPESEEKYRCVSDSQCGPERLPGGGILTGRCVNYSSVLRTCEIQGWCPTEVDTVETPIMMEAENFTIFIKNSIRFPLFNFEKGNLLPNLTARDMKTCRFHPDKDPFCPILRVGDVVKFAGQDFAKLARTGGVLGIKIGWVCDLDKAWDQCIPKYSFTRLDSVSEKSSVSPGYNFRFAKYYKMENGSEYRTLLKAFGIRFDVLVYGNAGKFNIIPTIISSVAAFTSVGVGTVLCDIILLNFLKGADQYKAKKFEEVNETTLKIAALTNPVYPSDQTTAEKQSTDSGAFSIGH
Format: cell-based
In the case of `CNC(=O)c1csc(-c2nc3cc(C)ccn3c2C[C@H]2CN(C(=O)OC)CCO2)c1F` [Compound 23], the pIC50 was 5.30 to 6.70. `CCOC(=O)N1CCO[C@@H](Cc2c(C(=O)Nc3cc(F)cc(F)c3)nc3cc(C)ccn23)C1` [Compound 20] gave a pIC50 of 5.30 to 6.70. `COC(=O)N1CCO[C@@H](Cc2c(-c3c(F)cc(-n4cnc(C(=O)O)c4)cc3F)nc3cc(C)ccn23)C1` [Compound 107, (S)-1-(3,5-difluoro-4-(3-((4-(carbomethoxy<methoxycarbonyl>)morpholin-2-yl)methyl)-7-methylimidazo[1,2-a]pyridin-2-yl)phenyl)-1H-imidazole-4-carboxylic acid] showed a pIC50 of 7.30 to 8.00. In the case of `COC(=O)N1CCO[C@@H](Cc2c(-c3c(F)cc(-n4nccc4C#N)cc3F)nc3cc(C)ccn23)C1` [Compound 124-2], the pIC50 was no less than 8.00. In the case of `CNC(=O)Oc1cc(F)c(-c2nc3cc(C)ccn3c2C[C@H]2CN(C(=O)OC)CCO2)c(F)c1` [Compound 36, methyl (S)-2-((2-(2,6-difluoro-4-(methylcarbamoyloxy)phenyl)-7-methylimidazo[1,2-a]pyridin-3-yl)methyl)morpholine-4-carboxylate], the pIC50 was 7.30 to 8.00.

Same assay, conditions: read-out: P2X3 IC50
Work on `COC(=O)N1CCO[C@@H](Cc2c(-c3c(F)cc(S(N)(=O)=O)cc3Cl)nc3cc(Cl)ccn23)C1` [Compound 179, methyl (S)-2-((7-chloro-2-(2-chloro-6-fluoro-4-sulfamoylphenyl)imidazo[1,2-a]pyridin-3-yl)methyl)morpholine-4-carboxylate] yielded a pIC50 of 9.40. `COC(=O)N1CCO[C@@H](Cc2c(-c3c(F)cc(NC(C)=O)cc3F)nc3cc(C(F)(F)F)ccn23)C1` [Compound 153, methyl (S)-2-((2-(4-acetamido-2,6-difluorophenyl)-7-(trifluoromethyl)imidazo[1,2-a]pyridin-3-yl)methyl)morpholine-4-carboxylate] was tested, and the pIC50 was 6.70 to 7.30. With `CNC(=O)c1cc(F)c(-c2nc3cc(C)cnc3n2C[C@H]2CN(C(=O)OC)CCO2)c(F)c1` [Compound 94, methyl (S)-2-((2-(2,6-difluoro-4-(methylcarbamoyl)phenyl)-6-methyl-3H-imidazo[4,5-b]pyridin-3-yl)methyl)morpholine-4-carboxylate] the pIC50 was 6.70 to 7.30. Compound `COC(=O)N1CCO[C@@H](Cc2c(-c3c(F)cc(NC(=O)C4CCC(C(=O)O)CC4)cc3F)nc3cc(C)ccn23)C1` (stereo partly shown) [Compound 82] has a pIC50 of 7.30 to 8.00. `CNC(=O)c1cc(F)c(-c2nn3cc(C)ccc3c2C[C@H]2CN(C(=O)OC)CCO2)c(F)c1` [Compound 57] was tested, and the pIC50 was greater than 8.00. `CCC(=O)N1CCO[C@@H](Cc2c(-c3c(F)cc(NC(C)=O)cc3F)nc3cc(C)ccn23)C1` [Compound 156] showed a pIC50 greater than 8.00. `C=CC(=O)Nc1cc(F)c(-c2nc3cc(C)ccn3c2C[C@H]2CN(C(=O)OC)CCO2)c(F)c1` [Compound 87] showed a pIC50 of 6.70 to 7.30. `COC(=O)N1CCO[C@@H](Cc2c(-c3c(F)cc(N4C(=O)C=CC4=O)cc3F)nc3cc(C)ccn23)C1` [Compound 28, methyl (S)-2-((2-(2,6-difluoro-4-(2,5-dioxo-2,5-dihydropyrrol-1-yl)phenyl)-7-methylimidazo[1,2-a]pyridin-3-yl)methyl)morpholine-4-carboxylate] showed a pIC50 of 7.30 to 8.00. Compound `COC(=O)N1CCO[C@@H](Cc2c(-c3c(F)cc(NC(C)=O)cc3F)nc3cc(F)ccn23)C1` [Compound 148] has a pIC50 greater than 8.00. `COC(=O)N1CCO[C@@H](Cc2c(-c3c(F)cc(-n4cnc(C#N)c4)cc3F)nc3cc(C)ccn23)C1` [Compound 192, methyl (S)-2-((2-(4-(4-cyano-1H-imidazol-1-yl)-2,6-difluorophenyl)-7-methylimidazo[1,2-a]pyridin-3-yl)methyl)morpholine-4-carboxylate] gave a pIC50 of 7.30 to 8.00. With `CNC1(c2cc(F)c(-c3nc4cc(C)ccn4c3C[C@H]3CN(C(=O)OC)CCO3)c(F)c2)COC1` [Compound 69, methyl (S)-2-((2-(2,6-difluoro-4-(3-(methylamino)oxetan-3-yl)phenyl)-7-methylimidazo[1,2-a]pyridin-3-yl)methyl) morpholine-4-carboxylate] the pIC50 was 7.30 to 8.00. `COC(=O)N1CCO[C@@H](Cc2c(-c3c(F)cc(N4C=CCC4=O)cc3F)nc3cc(C)ccn23)C1` [Compound 100] gave a pIC50 of 7.30 to 8.00. In the case of `COC(=O)N1CCO[C@@H](Cc2c(-c3c(F)cc(-n4ccc(C(=O)O)n4)cc3F)nc3cc(C)ccn23)C1` [Compound 125, (S)-1-(3,5-difluoro-4-(3-((4-(methoxycarbonyl)morpholin-2-yl)methyl)-7-methylimidazo[1,2-a]pyridin-2-yl)phenyl)-1H-pyrazole-3-carboxylic acid], the pIC50 was greater than 8.00. `COC(=O)N1CCO[C@@H](Cc2c(-c3c(F)cc(NC4CCC(=O)CC4)cc3F)nc3cc(C)ccn23)C1` [Compound 80, methyl (S)-2-((2-(2,6-difluoro-4-((4-carbonylcyclohexyl)amino)phenyl)-7-methylimidazo[1,2-a]pyridin-3-yl)methyl) morpholine-4-carboxylate] was tested, and the pIC50 was 7.30 to 8.00. `COC(=O)N1CCO[C@@H](Cc2c(-c3c(F)cc(-n4ccoc4=O)cc3F)nc3cc(C)ccn23)C1` [Compound 99] showed a pIC50 of 7.30 to 8.00. Compound `COC(=O)N1CCO[C@@H](Cc2c(-c3c(F)cc(-c4ccon4)cc3F)nc3cc(C)ccn23)C1` [Compound 16, methyl (S)-2-((2-(2,6-difluoro-4-(isoxazol-3-yl)phenyl)-7-methylimidazo[1,2-a]pyridin-3-yl)methyl)morpholine-4-carboxylate] has a pIC50 of 7.30 to 8.00. `COC(=O)N1CCO[C@@H](Cc2c(-c3c(F)cc(-c4cc[nH]n4)cc3F)nc3cc(F)ccn23)C1` [Compound 103] was tested, and the pIC50 was 6.70 to 7.30. `CNC(=O)C1(c2cc(F)c(-c3nc4cc(C)ccn4c3C[C@H]3CN(C(=O)OC)CCO3)c(F)c2)CC1` [Compound 66] showed a pIC50 of 6.70 to 7.30. With `COC(=O)N1CCO[C@@H](Cc2c(-c3c(F)cc(C4(C(N)=O)CC4)cc3F)nc3cc(C)ccn23)C1` [Compound 65] the pIC50 was 6.70 to 7.30. `COC(=O)N1CCO[C@@H](Cc2c(-c3c(F)cc(-c4nc(C5(O)CC5)c[nH]4)cc3F)nc3cc(C)ccn23)C1` [Compound 116] was tested, and the pIC50 was 7.30 to 8.00. Work on `CNC(=O)Cc1cc(F)c(-c2nc3cc(C)ccn3c2C[C@H]2CN(C(=O)OC)CCO2)c(F)c1` [Compound 64, methyl (S)-2-((2-(4-(2-(methylamino)-2-oxoethyl)-2,6-difluorophenyl)-7-methylimidazo[1,2-a]pyridin-3-yl)methyl) morpholine-4-carboxylate] yielded a pIC50 of 6.70 to 7.30. In the case of `COC(=O)N1CCO[C@@H](Cc2c(-c3ccc(S(N)(=O)=O)nc3Cl)nc3cc(C)ccn23)C1` [Compound 190], the pIC50 was greater than 8.00. `CNC1(c2cc(F)c(-c3nc4cc(C)ccn4c3C[C@H]3CN(C(=O)OC)CCO3)c(F)c2)CC1` [Compound 67, methyl (S)-2-((2-(2,6-difluoro-4-(1-(methylamino)cyclopropyl)phenyl)-7-methylimidazo[1,2-a]pyridin-3-yl)methyl) morpholine-4-carboxylate] gave a pIC50 of 7.30 to 8.00. `COC(=O)N1CCO[C@@H](Cc2c(-c3c(F)cc(NC(=O)C4CCC(=O)CC4)cc3F)nc3cc(C)ccn23)C1` [Compound 83] showed a pIC50 of 6.70 to 7.30. Compound `COC(=O)N1CCO[C@@H](Cc2c(-c3c(F)cc(-n4ccc(C#N)c4)cc3F)nc3cc(C)ccn23)C1` [Compound 137] has a pIC50 of 7.30 to 8.00. With `COC(=O)N1CCO[C@@H](Cc2c(-c3c(F)cc(Nc4ccc(F)o4)cc3F)nc3cc(C)ccn23)C1` [Compound 73] the pIC50 was 6.70 to 7.30.
